Source: ChEMBL document CHEMBL1201862, “PubChem BioAssay data set” (2004)
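Assay format: 96-well plates, 48-hour exposure. At the GI50, growth is halved.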 Active and inactive are the calls of the source. No stated cut-off is given here; in the data, active = GI50 up to about 1.1 µM and inactive = higher.

Experiments:
Assay in all cases: NCI anticancer screen, dose series, 48 h
MDA-MB-231 = test system: MDA-MB-231
NCI-H226 = test system: NCI-H226
LOX IMVI = test system: LOX IMVI
TK-10 = test system: TK-10
COLO 205 = test system: COLO 205
Hs-578T = test system: Hs-578T
786-0 = test system: 786-0
OVCAR-3 = test system: OVCAR-3
HCT-15 = test system: HCT-15
Malme-3M = test system: Malme-3M
MOLT-4 = test system: MOLT-4
SF-539 = test system: SF-539
UACC-257 = test system: UACC-257
KM12 = test system: KM12
SK-MEL-2 = test system: SK-MEL-2
ACHN = test system: ACHN
UACC-62 = test system: UACC-62
SF-268 = test system: SF-268
HL-60 = test system: HL-60
MCF7 = test system: MCF7

| SMILES | GI50 (MDA-MB-231) | GI50 (NCI-H226) | GI50 (LOX IMVI) | GI50 (TK-10) | GI50 (COLO 205) | GI50 (Hs-578T) | GI50 (786-0) | GI50 (OVCAR-3) | GI50 (HCT-15) | GI50 (Malme-3M) | GI50 (MOLT-4) | GI50 (SF-539) | GI50 (UACC-257) | GI50 (KM12) | GI50 (SK-MEL-2) | GI50 (ACHN) | GI50 (UACC-62) | GI50 (SF-268) | GI50 (HL-60) | GI50 (MCF7) |
| --- | --- | --- | --- | --- | --- | --- | --- | --- | --- | --- | --- | --- | --- | --- | --- | --- | --- | --- | --- | --- |
| CC(=O)ON(C(C)=O)c1ccc(-c2nc3ccccc3s2)cc1C | 33.8 µM (inactive) | 2.6 µM (inactive) | 37.4 µM (inactive) | 2.96 µM (inactive) | 20.5 µM (inactive) | 37.8 µM (inactive) | 60 µM (inactive) | 25.8 µM (inactive) | 12.9 µM | > 100 µM (inactive) | 66.7 µM (inactive) | 41 µM (inactive) | 50 µM (inactive) | 47.4 µM (inactive) | > 100 µM (inactive) | 32.6 µM (inactive) | 44.3 µM (inactive) | 52.1 µM (inactive) |  |  |
| O=C(O)c1cc(O)nc(SCc2ccccc2)n1 | > 100 µM (inactive) | > 100 µM (inactive) | > 100 µM (inactive) | > 100 µM (inactive) |  |  | > 100 µM (inactive) | > 100 µM (inactive) | > 100 µM | > 100 µM (inactive) | > 100 µM (inactive) |  | > 100 µM (inactive) | > 100 µM (inactive) | > 100 µM (inactive) | > 100 µM (inactive) | > 100 µM (inactive) | > 100 µM (inactive) | > 100 µM (inactive) |  |
| c1ccc(CSP234N5CCN2CCN3CCN4CC5)c(CSP234N5CCN2CCN3CCN4CC5)c1 | > 100 µM (inactive) |  | > 100 µM (inactive) | > 100 µM (inactive) | 13.6 µM (inactive) | 80.2 µM (inactive) | > 100 µM (inactive) | > 100 µM (inactive) | > 100 µM |  | 65.2 µM (inactive) | 41.7 µM (inactive) | > 100 µM (inactive) | > 100 µM (inactive) | > 100 µM (inactive) | > 100 µM (inactive) | > 100 µM (inactive) | > 100 µM (inactive) | 3.65 µM (inactive) | > 100 µM (inactive) |
| CC1=CC(C)(C)Nc2ccc(CSc3ccccc3)cc21 | 32.9 µM (inactive) | 48.4 µM (inactive) | 30.7 µM (inactive) | 39.5 µM (inactive) | 22 µM (inactive) | 38.3 µM (inactive) | 23.2 µM (inactive) | 18.7 µM (inactive) | 30.9 µM | 17.9 µM (inactive) |  | 44.8 µM (inactive) | 26.7 µM (inactive) | 26.2 µM (inactive) | 23.4 µM (inactive) | 46.6 µM (inactive) | 41.1 µM (inactive) | 35.3 µM (inactive) |  | 22 µM (inactive) |
| Cc1cccc2c(N)c3cccc(C(=O)NCCNCCN)c3nc12 | 1.96 µM (inactive) |  | 5.28 µM (inactive) | 22.3 µM (inactive) | 2.71 µM (inactive) | 1.24 µM (inactive) | 0.0644 µM (active) | 21.9 µM (inactive) | 12.4 µM | 15.4 µM (inactive) | 0.0649 µM (active) | 1.61 µM (inactive) | 26.2 µM (inactive) | 3.89 µM (inactive) | 13 µM (inactive) | 3.8 µM (inactive) | 7.4 µM (inactive) | 0.0698 µM (active) | 8.83 µM (inactive) | 0.369 µM (active) |
| Cc1noc(C)c1/N=N/c1ccc2nonc2c1N | > 100 µM (inactive) |  | > 100 µM (inactive) | 58.7 µM (inactive) | > 100 µM (inactive) |  | 42.4 µM (inactive) | > 100 µM (inactive) | > 100 µM | > 100 µM (inactive) | > 100 µM (inactive) | 23.4 µM (inactive) | > 100 µM (inactive) | > 100 µM (inactive) | > 100 µM (inactive) | > 100 µM (inactive) | > 100 µM (inactive) | > 100 µM (inactive) | > 100 µM (inactive) | > 100 µM (inactive) |
| Cc1ccc(S(=O)(=O)Nn2c(S)c(C#N)c(-c3ccc(Cl)cc3)c(C#N)c2=O)cc1 | 36.2 µM (inactive) | 16.4 µM (inactive) | 29.9 µM (inactive) | 25.6 µM (inactive) | 35.6 µM (inactive) |  | 32.6 µM (inactive) | 53.6 µM (inactive) | 25.9 µM | 30.8 µM (inactive) | 24.7 µM (inactive) | 19.6 µM (inactive) | 45.3 µM (inactive) | 36.2 µM (inactive) | 56.8 µM (inactive) | 31.6 µM (inactive) | 27.7 µM (inactive) |  | 23 µM (inactive) | 44.6 µM (inactive) |
| O=C(Nc1ccc(N2C(=O)CSC2c2cccs2)cc1)c1ccc(N2C(=O)CSC2c2cccs2)cc1 (centres undefined) | > 100 µM (inactive) |  | 88.9 µM (inactive) | > 100 µM (inactive) | > 100 µM (inactive) | > 100 µM (inactive) | 58.6 µM (inactive) | > 100 µM (inactive) | > 100 µM | > 100 µM (inactive) | 39.5 µM (inactive) | > 100 µM (inactive) | > 100 µM (inactive) | > 100 µM (inactive) | > 100 µM (inactive) | > 100 µM (inactive) | 56.5 µM (inactive) | > 100 µM (inactive) |  | 62.1 µM (inactive) |
| Cc1ccsc1C(=O)C(CC(=O)c1cccs1)c1ccsc1 (centres undefined) | 77.6 µM (inactive) | > 100 µM (inactive) |  | > 100 µM (inactive) | > 100 µM (inactive) | > 100 µM (inactive) | > 100 µM (inactive) | > 100 µM (inactive) | > 100 µM | > 100 µM (inactive) | 77.3 µM (inactive) | > 100 µM (inactive) | > 100 µM (inactive) | > 100 µM (inactive) |  | > 100 µM (inactive) | > 10 µM (inactive) | > 100 µM (inactive) |  | 76.2 µM (inactive) |
| Cc1ccnc(NC(=S)Nc2ccc([N+](=O)[O-])cc2)c1 |  | > 100 µM (inactive) | > 100 µM (inactive) | > 100 µM (inactive) |  | 24 µM (inactive) | 75.3 µM (inactive) |  | > 100 µM |  | > 100 µM (inactive) | 26.4 µM (inactive) | > 100 µM (inactive) | > 100 µM (inactive) | > 100 µM (inactive) | > 100 µM (inactive) | > 100 µM (inactive) | 63.5 µM (inactive) | > 100 µM (inactive) | > 100 µM (inactive) |
| CC12CC(=O)Nc3ccccc3N1C(c1ccccc1)=NO2 (centres undefined) | > 100 µM (inactive) | > 100 µM (inactive) |  | > 100 µM (inactive) | > 100 µM (inactive) | > 100 µM (inactive) | > 100 µM (inactive) | > 100 µM (inactive) | > 100 µM | > 100 µM (inactive) | > 100 µM (inactive) | > 100 µM (inactive) | > 100 µM (inactive) | > 100 µM (inactive) | > 100 µM (inactive) | > 100 µM (inactive) | > 100 µM (inactive) | > 100 µM (inactive) | > 100 µM (inactive) | > 100 µM (inactive) |
| OCc1ccc2c(c1)CC1(Cc3ccccc3C1)C2 | 10.1 µM (inactive) | 28.1 µM (inactive) | 15.4 µM (inactive) | 21.2 µM (inactive) | 15.6 µM (inactive) | 15.8 µM (inactive) | 15.1 µM (inactive) | 23 µM (inactive) | 25.8 µM | 13.6 µM (inactive) | > 10 µM (inactive) | 18.3 µM (inactive) | 15.1 µM (inactive) | 14.4 µM (inactive) |  | 21 µM (inactive) | 20.1 µM (inactive) | 18.1 µM (inactive) | 10.7 µM (inactive) |  |
| OCC1OC(n2nc(-c3ccccc3)nc2-c2cnccn2)C(O)C1O (centres undefined) | > 100 µM (inactive) |  | > 100 µM (inactive) | > 100 µM (inactive) | > 100 µM (inactive) |  | > 100 µM (inactive) | > 100 µM (inactive) | > 100 µM |  | > 100 µM (inactive) | > 100 µM (inactive) | > 100 µM (inactive) | > 100 µM (inactive) |  |  | > 100 µM (inactive) | > 100 µM (inactive) | > 100 µM (inactive) | > 100 µM (inactive) |
| COC(=O)CCC(=O)c1ccc2c(c1)CC1(C2)Cc2ccc(C(=O)CCC(=O)OC)cc2C1 | 60.1 µM (inactive) |  | > 100 µM (inactive) | 82.6 µM (inactive) | 94.4 µM (inactive) | > 100 µM (inactive) | 30.8 µM (inactive) | 61.2 µM (inactive) | > 100 µM | > 100 µM (inactive) | 52 µM (inactive) | 67.5 µM (inactive) | 85.1 µM (inactive) | > 100 µM (inactive) | 0.61 µM (active) | 25.8 µM (inactive) | > 100 µM (inactive) |  | 56.2 µM (inactive) | 44.1 µM (inactive) |
| CC(C)(C)c1ccc(-c2nc3ccc(Cl)cc3c(=O)o2)cc1 | 0.324 µM (active) |  | 15.4 µM (inactive) | 41.3 µM (inactive) | 17.7 µM (inactive) | 30.5 µM (inactive) | 36.6 µM (inactive) | 7.78 µM (inactive) | 13.9 µM | 16.6 µM (inactive) | 16.9 µM (inactive) | 14.7 µM (inactive) | 31.2 µM (inactive) | 5.12 µM (inactive) | 18.5 µM (inactive) | 14.1 µM (inactive) | 18.8 µM (inactive) | 22 µM (inactive) | 19.4 µM (inactive) | 25 µM (inactive) |
| COc1cc2c(cc1OC)C(OC)N(C)c1c-2ccc2cc3c(cc12)OCO3 (centres undefined) | 1.4 µM (inactive) | 1.11 µM (active) | 5.36 µM (inactive) | 6.75 µM (inactive) | 0.733 µM (active) |  | 1.86 µM (inactive) | 1.5 µM (inactive) | 40.7 µM | 3.51 µM (inactive) | 0.611 µM (active) | 1.75 µM (inactive) | 12.1 µM (inactive) | 0.839 µM (active) | 1.98 µM (inactive) | 4.69 µM (inactive) | 0.8 µM (active) | 0.094 µM (active) | 2.22 µM (inactive) | 1.24 µM (inactive) |
